{
  "source": "patent US6528042B1",
  "about": "“Compositions of flavonoids for use as cytoprotectants and methods of making and using them” (Galileo Laboratories, Inc., priority 1999, dated 2003)",
  "key": {"[1]": {"tested_on": "GCL1 cells", "assay": "SYTOX cell death assay in GCL1 cells treated with antimycin A (chemical ischemia)", "format": "cell-based, rat hepatoma cells (fao) / human fibroblasts (W138) hybrid", "text": "At greater than 80% confluence, more than 80% of the cells participate in forming one or more phaselucent, spherical structures that are located between cells, termed bile canicular-like spaces. In contrast to the majority of cell lines maintained in culture which are fermentative, GCL1 cells, when at their maximal density and polarity, are highly oxidative (i.e., they can be readily killed by inhibitors of oxidative phosphorylation or electron transport uncouplers). […] These cells are amenable to use in high throughput screening (HTS) technology.\nThe cells, with or without AA, are incubated at 37° C. in a 5% CO2 humidified incubator for 1 to 5 hours. […] The concentration of agents used for screening will be dependent upon the agents. Certain control groups contain 100 μl of HBSS only.\n(§1) SYTOX Green nucleic acid stain is a high-affinity nucleic acid stain that easily penetrates cells with a compromised plasma membrane but will not cross the membrane of live cells. The nucleic acids of dead cells fluoresce bright green at 524 nm when excited with the 488 nm spectral source or with any other 450-500 nm source. […] In the cell viability assay chemical ischemia is created in cells and then cells are incubated with the SYTOX dye. The compound antimycin is used to simulate ischemia at the same time as stimulating the cells with forskolin. […] The assay is performed on cells grown in 96-well format allowing high throughput screening of compounds.\nAliquot at 100 μl. This 10 mM stock is then diluted to 1 mM with DMSO and aliquoted at 25 μL. Both the 10 mM and the 1 mM are stored at −20° C. until use. […] Aliquot at 100 μl and store at −20° C. until use. iv.) HBSS-SYTOX-FORSKOLIN-ANTIMYCIN (H-S-F-A) solution: H-S-F-A solution is made up fresh prior to each assay in sterile 175 ml or 225 ml Falcon bottles. […]\nCells are grown in 96-well black plates (with or without clear bottoms) at a density of 1000 cells per well for 24 hours. The necessary number of 96-well plates containing the specific cell type are obtained and placed in the laminar flow safety cabinet. A sterile microtiter basin is filled with the appropriate volume of pre-warmed 1×HBSS. Using aseptic technique and an 8-channel aspirator, the media is carefully removed from the cells and replaced with 200 μl of 1×HBSS. This is done as quickly as possible to prevent the cells drying out. The plates are then placed in the humidified 37° C. incubators of the Biomek 2000 Side Loader. Four plates are washed at a time so as to minimize the time that the cells are sitting in 1×HBSS prior to addition of the H-S-A-compound test solution.\n(§2) Compound(s) are mixed with the 1 μM SYTOX working solution and added to the washed cell culture wells. Fluorescence is measured at designated time points (488 nm excitation and 530 nm emission). All of the sample readings subtract the background readings, which is cell-free wells only containing HBSS buffer with SYTOX green dye. The data is compared to non-treated cells (control) and is expressed as mean±S.D. from 4 culture wells. SYTOX Green fluorescence units obtained from each group are corrected for basal fluorescence (cell-free wells with only HBSS and fluorescence reagent). Data are represented as mean±SD. A paired t-test is performed comparing treated groups (Toxin+Agent) with non-treated groups (Toxin only) after subtracting the control groups (HBSS only) for each data set. Comparisons among groups are statistically evaluated by two-tailed t-test (Graphpad Prism Software, version 2.0). Differences are considered significant at P<0.05.\nHesperetin, diosmin, luteolin and quercetin were tested individually for their ability to counteract disruptions of normal energy metabolism. Flavonoids were commercially obtained, generally from Sigma Chemical Co., St. Louis, Mo., and/or Aldrich Chemical Co., Milwaukee, Wis."}, "[2]": {"tested_on": "Oxidatively competent cells", "assay": "SYTOX cell death assay in oxidatively competent cells treated with antimycin A", "format": "cell-based", "experimental": "Oxidatively competent cells are prepared as described in Example 1. and Example 2.A and are seeded onto 96-well plates at 1×10^3/well or 2.5×10^3/well as passage 15. The cells are grown in DMEM with 10% FBS and 1.5 g/L sodium bicarbonate for 24 or 48 hours to reach 85% confluence. The cells are washed once with HBSS and then 100 μl of HBSS containing different concentration of AA (Sigma, Cat #A 8674) is added to the cells. AA is dissolved in DMSO to make a stock solution of 50 mM, then diluted with HBSS to 25, 12.5, 6.25, 3.125, and 1.56 μM for dose-response curves. The cells, with or without AA, are incubated at 37° C. in a 5% CO2 humidified incubator for 1 to 5 hours. The concentration of AA is chosen to induce 75% or 100% cell death as a screening dose to test the effect of agents to protect against AA- induced cell toxicity. The concentration of agents used for screening will be dependent upon the agents. Certain control groups contain 100 μl of HBSS only.\nas §1, §2\nOxidatively competent cells were treated simultaneously with hesperetin, chrysin and 100 nM antimycin A2.C. The cells were treated with various low concentrations of hesperetin and various concentrations of chrysin (Sigma Chemical Co., cat. #C3018). Hesperetin, chrysin and antimycin A were mixed together before treating the cells. Cell viability was measured at time points up to 5 hours using SYTOX, as described in Example 2.F.\nIn experiments carried out in support of the invention, various concentrations of diosmin and alpha-tocopherol were tested for synergistic ability to ameliorate disruption of energy metabolism secondary to stress. Oxidatively competent cells were treated simultaneously with diosmin, alpha-tocopherol and antimycin A2.C. The cells were treated with various low concentrations of diosmin (Sigma Chemical Co., cat. #D3525) and various low concentrations of (+/−) alpha-tocopherol. Diosmin, alpha-tocopherol and antimycin were mixed together before treating cells. Cell viability was measured 4 hours after treatment using SYTOX. […] Likewise, the combination of disomin (11-100 μM) with 1.1 μg/ml (+/−) alpha tocopherol was synergistic. […] Diosmin alone provided no protection at a concentration of 100 μM. […] A combination of 100 μM diosmin and 11 μg/ml (+/−) alpha tocopherol was also synergistic. […]"}, "[3]": {"conditions": "cited from earlier work"}, "[4]": {"conditions": "25 μM hesperetin alone, 4 hours, control cell death 82.9%"}},
  "data": [
    {"smiles": "COc1ccc([C@@H]2CC(=O)c3c(O)cc(O)cc3O2)cc1O", "note": "[Hesperetin, (S)-2,3-dihydro-5,7-dihydroxy-2-(3-hydroxy-4-methoxyphenyl)-4H-1-benzopyran-4-one]", "values": [
      {"measurement": "Cell Death", "setting": "[1]; [4]", "value": 81.1, "unit": "%"},
      {"measurement": "reduction in cell death", "setting": "[1]; [4]", "value": 1.8, "unit": "%"},
      {"measurement": "protection", "setting": "[1]; 50 μM Hesperetin alone", "value": 14.4, "unit": "%"},
      {"measurement": "Cell Death", "setting": "[1]; 50 μM Hesperetin alone, 4 hours, control 82.1%", "value": 81.3, "unit": "%"},
      {"measurement": "Cell Death", "setting": "[1]; 50 μM hesperetin alone, 4 hours, control 97.4%", "value": 92.6, "unit": "%"},
      {"measurement": "protection above control level", "setting": "[1]; 75 μM Hesperetin by itself", "value": 7.5, "unit": "%"},
      {"measurement": "Cell Death", "setting": "[1]; Hesperetin 1.9 μM, antimycin A 100 nM, time 0:00 hr:min", "value": "0.0% ± 0.0"},
      {"measurement": "Cell Death", "setting": "[1]; Hesperetin 1.9 μM, antimycin A 100 nM, time 1:45 hr:min", "value": "0.5% ± 0.6"},
      {"measurement": "Cell Death", "setting": "[1]; Hesperetin 1.9 μM, antimycin A 100 nM, time 2:45 hr:min", "value": "30.4% ± 3.3"},
      {"measurement": "Cell Death", "setting": "[1]; Hesperetin 1.9 μM, antimycin A 100 nM, time 3:45 hr:min", "value": "66.0% ± 3.1"},
      {"measurement": "Cell Death", "setting": "[1]; Hesperetin 1.9 μM, antimycin A 100 nM, time 4:45 hr:min", "value": "81.5% ± 1.4"},
      {"measurement": "Cell Death", "setting": "[1]; Hesperetin 6 μM, antimycin A 100 nM, time 0:00 hr:min", "value": "0.0% ± 0.0"},
      {"measurement": "Cell Death", "setting": "[1]; Hesperetin 6 μM, antimycin A 100 nM, time 1:45 hr:min", "value": "1.8% ± 0.8"},
      {"measurement": "Cell Death", "setting": "[1]; Hesperetin 6 μM, antimycin A 100 nM, time 2:45 hr:min", "value": "28.4% ± 1.5"},
      {"measurement": "Cell Death", "setting": "[1]; Hesperetin 6 μM, antimycin A 100 nM, time 3:45 hr:min", "value": "65.0% ± 1.5"},
      {"measurement": "Cell Death", "setting": "[1]; Hesperetin 6 μM, antimycin A 100 nM, time 4:45 hr:min", "value": "81.8% ± 0.7"},
      {"measurement": "Cell Death", "setting": "[1]; Hesperetin 17 μM, antimycin A 100 nM, time 0:00 hr:min", "value": "0.0% ± 0.0"},
      {"measurement": "Cell Death", "setting": "[1]; Hesperetin 17 μM, antimycin A 100 nM, time 2:45 hr:min", "value": "27.2% ± 2.0"},
      {"measurement": "Cell Death", "setting": "[1]; Hesperetin 17 μM, antimycin A 100 nM, time 3:45 hr:min", "value": "64.1% ± 0.6"},
      {"measurement": "Cell Death", "setting": "[1]; Hesperetin 17 μM, antimycin A 100 nM, time 4:45 hr:min", "value": "80.3% ± 1.0"},
      {"measurement": "Cell Death", "setting": "[1]; Hesperetin 50 μM, antimycin A 100 nM, time 0:00 hr:min", "value": "0.0% ± 0.0"},
      {"measurement": "Cell Death", "setting": "[1]; Hesperetin 50 μM, antimycin A 100 nM, time 1:45 hr:min", "value": "2.3% ± 0.3"},
      {"measurement": "Cell Death", "setting": "[1]; Hesperetin 50 μM, antimycin A 100 nM, time 2:45 hr:min", "value": "14.4% ± 2.2"},
      {"measurement": "Cell Death", "setting": "[1]; Hesperetin 50 μM, antimycin A 100 nM, time 3:45 hr:min", "value": "53.1% ± 5.7"},
      {"measurement": "Cell Death", "setting": "[1]; Hesperetin 50 μM, antimycin A 100 nM, time 4:45 hr:min", "value": "74.0% ± 6.2"},
      {"measurement": "protective effect", "setting": "[1]; concentrations of 50 μM and below", "value": "little, if any, protective effect"},
      {"measurement": "Cell Death", "setting": "[2]; 50 μM hesperetin alone, control 72.9%", "value": 73.4, "unit": "%"},
      {"measurement": "protection when tested separately", "setting": "[2]; 2 and 50 μM hesperetin, four hours", "value": "generally ineffective"},
      {"measurement": "abnormalities observed for a week", "setting": "[3]; administered orally to mice at 100 mg/kg (U.S. Pat. No. 5,650,433)", "value": "no abnormalities were observed"},
      {"measurement": "effects on liver function", "setting": "[3]; tests using mice", "value": "no adverse effects on liver function"},
      {"measurement": "toxicity or mitogenicity", "setting": "[3]; tests using mice", "value": "little toxicity or mitogenicity"}
    ]}
  ]
}
